The source of these data is PubChem BioAssay (NCI).

Some test systems named below: MCF7 breast; MDA-MB-435; HS 578T breast; 786-0 renal; HT29 colon; RXF 393 renal; SK-OV-3 ovarian; PC-3 prostate; BT-549 breast; EKVX NSCLC.
What all share (test): inhibition of tumour cell growth, NCI panel, 48 h

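Protocol summary: plate cells (96-well), add compound at 5 concentrations, incubate 48 h, interpolate endpoints linearly. GI50: concentration for 50% inhibition of growth. TGI: total growth inhibition.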 Bounds are passed on as bounds.

With `Nc1cc2c3ccccc3ccc2c2ccccc12`, the GI50 is 20.2 µM in the assay with MCF7 breast; over 56.1 µM with MDA-MB-435; over 100 µM with HS 578T breast; over 100 µM with 786-0 renal; over 100 µM in the assay with HT29 colon; over 100 µM with RXF 393 renal. In addition, the GI50 in the assay with SK-OV-3 ovarian was over 100 µM; in the assay on PC-3 prostate it was 7.78 µM; in the assay on BT-549 breast, over 77.1 µM. For the same compound, the TGI with MCF7 breast, in the assay with MDA-MB-435, in the assay with HS 578T breast, in the assay with 786-0 renal, in the assay with HT29 colon and with RXF 393 renal was over 100 µM each time. Besides, the TGI in the assay on SK-OV-3 ovarian, in the assay with PC-3 prostate and with BT-549 breast was over 100 µM in each case.
Regarding `COc1ccc(C2CC(=O)Nc3c2c(C)nn3-c2nc3ccccc3[nH]2)cc1OC` (configuration not stated), the GI50 in the assay on MCF7 breast was 3.78 µM; with MDA-MB-435, 3.25 µM; in the assay on HS 578T breast, 4.49 µM; in the assay on 786-0 renal it was 5.2 µM; in the assay on HT29 colon it was 5.66 µM; in the assay on RXF 393 renal, 2.19 µM. Also, the GI50 is 2.89 µM in the assay with SK-OV-3 ovarian, 4.27 µM in the assay with PC-3 prostate and 4.19 µM with BT-549 breast. For the same compound, the TGI was over 100 µM in the assay with MCF7 breast; 18.3 µM in the assay on MDA-MB-435; over 100 µM with HS 578T breast; 24.8 µM with 786-0 renal; 40 µM in the assay on HT29 colon; 5.69 µM in the assay on RXF 393 renal. In addition, the figures for the TGI in the assay with SK-OV-3 ovarian, in the assay with PC-3 prostate and in the assay on BT-549 breast were 6.49 µM, 63.6 µM and 33.7 µM, respectively.
In the case of `[N-]=[N+]=NCCCn1c2c(c3ccccc3c1=O)C(=O)c1cc3c(cc1-2)OCO3`, the GI50 with MCF7 breast is 0.817 µM; with MDA-MB-435, over 100 µM; with HS 578T breast, over 100 µM; in the assay on 786-0 renal, 31.9 µM; in the assay with RXF 393 renal, over 100 µM; with PC-3 prostate it was over 100 µM. For the same compound, the GI50 in the assay with BT-549 breast and in the assay on EKVX NSCLC was over 100 µM each time. The TGI in the assay with MCF7 breast, in the assay with MDA-MB-435, with HS 578T breast, in the assay on 786-0 renal, in the assay with RXF 393 renal and with PC-3 prostate was over 100 µM each time. Moreover, the TGI with BT-549 breast and in the assay on EKVX NSCLC was over 100 µM in each case.
For the compound `O=C(COc1ccc(Cl)cc1Cl)NNc1ccc([N+](=O)[O-])cc1`, the GI50 in the assay with MCF7 breast was over 100 µM; with MDA-MB-435, over 100 µM; with HS 578T breast, 25.6 µM; in the assay on 786-0 renal, 25.6 µM; with HT29 colon, over 100 µM; in the assay with RXF 393 renal it was 17 µM. In addition, the GI50 in the assay on SK-OV-3 ovarian is 24 µM; in the assay on PC-3 prostate, over 100 µM; with BT-549 breast, 24 µM. In addition, the TGI is over 100 µM in the assay on MCF7 breast; over 100 µM with MDA-MB-435; 95.4 µM with HS 578T breast; 61.2 µM in the assay on 786-0 renal; over 100 µM with HT29 colon; 39.9 µM with RXF 393 renal. Further, the figures for the TGI in the assay on SK-OV-3 ovarian, with PC-3 prostate and in the assay on BT-549 breast were 55 µM, over 100 µM and 52 µM, respectively.
As to `COc1ccc(N2CCN(c3nc(-c4ccccn4)nc4sc5c(c34)CCCCCC5)CC2)cc1`, the GI50 in the assay on MCF7 breast is 3.15 µM; in the assay on MDA-MB-435 it was 5.49 µM; in the assay with HS 578T breast, 57.6 µM; in the assay with 786-0 renal it was 8.45 µM; in the assay with HT29 colon, 5.06 µM; in the assay on RXF 393 renal, over 100 µM. The GI50 is over 100 µM with SK-OV-3 ovarian, 3.31 µM with PC-3 prostate and 6.92 µM with BT-549 breast. Besides, the TGI with MCF7 breast, with MDA-MB-435, with HS 578T breast, in the assay on 786-0 renal, with HT29 colon and in the assay on RXF 393 renal was over 100 µM in each case. Further, the TGI in the assay on SK-OV-3 ovarian, in the assay on PC-3 prostate and in the assay on BT-549 breast was over 100 µM in each case.
For `O=C(O)[C@@H](Cc1ccccc1)NS(=O)(=O)c1ccc(-c2ccccc2)cc1`, the GI50 with MCF7 breast, with MDA-MB-435, with HS 578T breast, in the assay with 786-0 renal, with HT29 colon and with SK-OV-3 ovarian was over 100 µM each time. In addition, the GI50 with PC-3 prostate, with BT-549 breast and with EKVX NSCLC was over 100 µM throughout. Also, the TGI in the assay with MCF7 breast, in the assay on MDA-MB-435, in the assay with HS 578T breast, with 786-0 renal, in the assay with HT29 colon and in the assay with SK-OV-3 ovarian was over 100 µM each time. In addition, the TGI with PC-3 prostate, in the assay with BT-549 breast and with EKVX NSCLC was over 100 µM each time.
With `Nc1ncnc2c1ncn2Cc1ccc(CCl)cc1`, the GI50 in the assay on MCF7 breast was 11.7 µM; in the assay on MDA-MB-435, 15.4 µM; in the assay with HS 578T breast, 25.9 µM; with 786-0 renal, 27.5 µM; in the assay on RXF 393 renal it was 20.3 µM; in the assay on SK-OV-3 ovarian, 19.7 µM. Also, the GI50 is 20.8 µM with PC-3 prostate, 14.3 µM with BT-549 breast and 17 µM in the assay on EKVX NSCLC. Further, the TGI in the assay with MCF7 breast is 62.7 µM; with MDA-MB-435, 32.9 µM; with HS 578T breast it was 58.1 µM; in the assay with 786-0 renal, 73.6 µM; in the assay with RXF 393 renal it was 62.2 µM; in the assay with SK-OV-3 ovarian, 40.8 µM. The TGI with PC-3 prostate was determined as 73.1 µM; with BT-549 breast, 28.7 µM; with EKVX NSCLC it was 34.9 µM.
Turning to `OCC1OC(n2cnc3cc(Cl)c(Cl)cc32)C(O)C1O` (configuration not stated), the GI50 was 21.5 µM in the assay on MCF7 breast; 24 µM in the assay on MDA-MB-435; 27 µM in the assay on HS 578T breast; 23.6 µM in the assay on 786-0 renal; 33.6 µM in the assay with HT29 colon; 37.9 µM in the assay with SK-OV-3 ovarian. Further, the GI50 was 44.5 µM in the assay with PC-3 prostate, 23 µM in the assay on BT-549 breast and 20.8 µM in the assay with EKVX NSCLC. Also, the TGI was 75.9 µM in the assay on MCF7 breast; 82.6 µM in the assay on MDA-MB-435; over 96.3 µM with HS 578T breast; over 68.3 µM in the assay with 786-0 renal; over 100 µM in the assay on HT29 colon; over 100 µM in the assay with SK-OV-3 ovarian. Besides, the TGI was over 100 µM with PC-3 prostate, 58.4 µM in the assay with BT-549 breast and 50.8 µM in the assay on EKVX NSCLC.
